In PubChem BioAssay AID1259407 (Chemical Carcinogenesis Research Information System (CCRIS), 2018):
Calls of active or inactive are those of the source. No rule for the calls is given here.

Test system: CCRIS mutagenicity, Ames/micronucleus/aberration tests
Assay: CCRIS mutagenicity studies
[1] = Test System: AMES SALMONELLA TYPHIMURIUM, Strain/Indicator: TA97, Metabolic Activation: NONE, Method: PREINCUBATION
[2] = Test System: AMES SALMONELLA TYPHIMURIUM, Strain/Indicator: TA98, Metabolic Activation: HAMSTER, LIVER, S-9, AROCLOR 1254 (10 OR 30%), Method: PREINCUBATION
[3] = Test System: AMES SALMONELLA TYPHIMURIUM, Strain/Indicator: TA98, Metabolic Activation: RAT, LIVER, S-9, AROCLOR 1254 (10 OR 30%), Method: PREINCUBATION
[4] = Test System: AMES SALMONELLA TYPHIMURIUM, Strain/Indicator: TA100, Metabolic Activation: HAMSTER, LIVER, S-9, AROCLOR 1254 (10 OR 30%), Method: PREINCUBATION
[5] = Test System: AMES SALMONELLA TYPHIMURIUM, Strain/Indicator: TA100, Metabolic Activation: NONE, Method: PREINCUBATION
[6] = Test System: AMES SALMONELLA TYPHIMURIUM, Strain/Indicator: TA100, Metabolic Activation: RAT, LIVER, S-9, AROCLOR 1254 (10 OR 30%), Method: PREINCUBATION
[7] = Test System: AMES SALMONELLA TYPHIMURIUM, Strain/Indicator: TA1535, Metabolic Activation: HAMSTER, LIVER, S-9, AROCLOR 1254 (10 OR 30%), Method: PREINCUBATION
[8] = Test System: AMES SALMONELLA TYPHIMURIUM, Strain/Indicator: TA1535, Metabolic Activation: NONE, Method: PREINCUBATION
[9] = Test System: AMES SALMONELLA TYPHIMURIUM, Strain/Indicator: TA1535, Metabolic Activation: RAT, LIVER, S-9, AROCLOR 1254 (10 OR 30%), Method: PREINCUBATION
[10] = Test System: AMES SALMONELLA TYPHIMURIUM, Strain/Indicator: TA98, Metabolic Activation: NONE, Method: PREINCUBATION

Measured: mutagenic call

C1N2CN3CN1CN(C2)C3
inactive: End Point: In vitro chromosomal aberrations, Test System: Chinese hamster lung (CHL/IU) cells, Metabolic Activation: Rat, Liver, S9, Phenobarbital and 5,6-benzoflavone inactive; negative | Test System: AMES SALMONELLA TYPHIMURIUM, Strain/Indicator: TA97, Metabolic Activation: HAMSTER, LIVER, S-9, AROCLOR 1254 (5 OR 30%), Method: PREINCUBATION inactive; negative | Test System: AMES SALMONELLA TYPHIMURIUM, Strain/Indicator: TA97, Metabolic Activation: HAMSTER, LIVER, S-9, AROCLOR 1254 (10%), Method: PREINCUBATION inactive; negative | [1] inactive; negative | Test System: AMES SALMONELLA TYPHIMURIUM, Strain/Indicator: TA97, Metabolic Activation: RAT, LIVER, S-9, AROCLOR 1254 (10%), Method: PREINCUBATION inactive; negative | Test System: AMES SALMONELLA TYPHIMURIUM, Strain/Indicator: TA97, Metabolic Activation: RAT, LIVER, S-9, AROCLOR 1254 (30%), Method: PREINCUBATION inactive; negative | [2] inactive; negative | [3] inactive; negative | Test System: AMES SALMONELLA TYPHIMURIUM, Strain/Indicator: TA98, Metabolic Activation: RAT, LIVER, S-9, PCB, Method: PREINCUBATION inactive; negative | [4] inactive; negative | [5] inactive; negative | [6] inactive; negative | Test System: AMES SALMONELLA TYPHIMURIUM, Strain/Indicator: TA100, Metabolic Activation: RAT, LIVER, S-9, PCB, Method: PREINCUBATION inactive; negative | [7] inactive; negative | [8] inactive; negative | [9] inactive; negative | Test System: AMES SALMONELLA TYPHIMURIUM, Strain/Indicator: TA1535, Metabolic Activation: RAT, LIVER, S-9, KC 500, Method: PREINCUBATION inactive; negative | Test System: AMES SALMONELLA TYPHIMURIUM, Strain/Indicator: TA1537, Metabolic Activation: HAMSTER, LIVER, S-9, AROCLOR 1254 (10%), Method: PREINCUBATION inactive; negative | Test System: AMES SALMONELLA TYPHIMURIUM, Strain/Indicator: TA1537, Metabolic Activation: NONE, Method: PREINCUBATION inactive; negative | Test System: AMES SALMONELLA TYPHIMURIUM, Strain/Indicator: TA1537, Metabolic Activation: RAT, LIVER, S-9, AROCLOR 1254 (10%), Method: PREINCUBATION inactive; negative | Test System: AMES SALMONELLA TYPHIMURIUM, Strain/Indicator: TA1537, Metabolic Activation: RAT, LIVER, S-9, KC 500, Method: PREINCUBATION inactive; negative | Test System: AMES SALMONELLA TYPHIMURIUM, Strain/Indicator: TA1538, Metabolic Activation: HAMSTER, LIVER, S-9, AROCLOR 1254 (10 OR 30%), Method: PREINCUBATION inactive; negative | Test System: AMES SALMONELLA TYPHIMURIUM, Strain/Indicator: TA1538, Metabolic Activation: NONE, Method: PREINCUBATION inactive; negative | Test System: AMES SALMONELLA TYPHIMURIUM, Strain/Indicator: TA1538, Metabolic Activation: RAT, LIVER, S-9, AROCLOR 1254 (10 OR 30%), Method: PREINCUBATION inactive; negative | Test System: AMES SALMONELLA TYPHIMURIUM, Strain/Indicator: TA1538, Metabolic Activation: RAT, LIVER, S-9, KC 500, Method: PREINCUBATION inactive; negative | Test System: Ames Salmonella typhimurium, Strain/Indicator: TA98, Metabolic Activation: None, Method: Preincubation inactive; negative | Test System: Ames Salmonella typhimurium, Strain/Indicator: TA98, Metabolic Activation: Rat, Liver, S9, Sodium phenobarbital and 5,6-benzoflavone (10%), Method: Preincubation inactive; negative | Test System: Ames Salmonella typhimurium, Strain/Indicator: TA100, Metabolic Activation: None, Method: Preincubation inactive; negative | Test System: Ames Salmonella typhimurium, Strain/Indicator: TA100, Metabolic Activation: Rat, Liver, S9, Sodium phenobarbital and 5,6-benzoflavone (10%), Method: Preincubation inactive; negative | Test System: Ames Salmonella typhimurium, Strain/Indicator: TA1535, Metabolic Activation: None, Method: Preincubation inactive; negative | Test System: Ames Salmonella typhimurium, Strain/Indicator: TA1535, Metabolic Activation: Rat, Liver, S9, Sodium phenobarbital and 5,6-benzoflavone (10%), Method: Preincubation inactive; negative | Test System: Ames Salmonella typhimurium, Strain/Indicator: TA1537, Metabolic Activation: None, Method: Preincubation inactive; negative | Test System: Ames Salmonella typhimurium, Strain/Indicator: TA1537, Metabolic Activation: Rat, Liver, S9, Sodium phenobarbital and 5,6-benzoflavone (10%), Method: Preincubation inactive; negative | Test System: E. COLI, Strain/Indicator: WP2 UVRA, Metabolic Activation: NONE, Method: PREINCUBATION inactive; negative | Test System: E. COLI, Strain/Indicator: WP2 UVRA, Metabolic Activation: RAT, LIVER, S-9, KC 500, Method: PREINCUBATION inactive; negative | Test System: E. coli, Strain/Indicator: WP2uvrA/pKM101, Metabolic Activation: None, Method: Preincubation inactive; negative | Test System: E. coli, Strain/Indicator: WP2uvrA/pKM101, Metabolic Activation: Rat, Liver, S9, Sodium phenobarbital and 5,6-benzoflavone (10%), Method: Preincubation inactive; negative
active: Test System: AMES SALMONELLA TYPHIMURIUM, Strain/Indicator: TA98, Metabolic Activation: RAT, LIVER, S-9, KC 500, Method: PREINCUBATION active; positive | Test System: AMES SALMONELLA TYPHIMURIUM, Strain/Indicator: TA100, Metabolic Activation: RAT, LIVER, S-9, KC 500, Method: PREINCUBATION active; positive

CCCCCCC[CH2][Sn]1([CH2]CCCCCCC)[O]C(=O)C=CC(=O)[O]1
inactive: Test System: AMES SALMONELLA TYPHIMURIUM, Strain/Indicator: TA97, Metabolic Activation: HAMSTER, LIVER, S-9, AROCLOR 1254 (10 OR 30%), Method: PREINCUBATION inactive; negative | [1] inactive; negative | Test System: AMES SALMONELLA TYPHIMURIUM, Strain/Indicator: TA97, Metabolic Activation: RAT, LIVER, S-9, AROCLOR 1254 (10 OR 30%), Method: PREINCUBATION inactive; negative | [2] inactive; negative | [10] inactive; negative | [3] inactive; negative | [4] inactive; negative | [5] inactive; negative | [6] inactive; negative | [7] inactive; negative | [8] inactive; negative | [9] inactive; negative

O=S(=O)(O)c1ccc(N=Nc2cc(S(=O)(=O)O)c3ccccc3c2O)c2ccccc12
inactive: End Point: IN VITRO CHROMOSOMAL ABERRATIONS, Test System: CHO CELLS, Metabolic Activation: NONE inactive; negative | End Point: IN VITRO CHROMOSOMAL ABERRATIONS, Test System: CHO CELLS, Metabolic Activation: RAT, LIVER, S-9, AROCLOR 1254 inactive; negative | Test System: Mouse lymphoma, Strain/Indicator: L5178Y (tk+/tk-), Metabolic Activation: None, Method: Suspension/plate inactive; negative | Test System: Mouse lymphoma, Strain/Indicator: L5178Y (tk+/tk-), Metabolic Activation: Rat, Liver, S-9, Aroclor 1254, Method: Suspension/plate inactive; negative

CC(=O)N(O)c1ccc(/C=C/c2ccccc2)cc1
active: Test System: AMES SALMONELLA TYPHIMURIUM, Strain/Indicator: TA98, Metabolic Activation: RAT, LIVER, CYTOSOL, Method: PREINCUBATION active; positive | Test System: AMES SALMONELLA TYPHIMURIUM, Strain/Indicator: TA98, Metabolic Activation: RAT, LIVER, MICROSOMES, Method: PREINCUBATION active; positive | Test System: CHINESE HAMSTER V-79, Strain/Indicator: V-79/6-THIOGUANINE, Metabolic Activation: NONE, Method: STANDARD PLATE active; positive
inactive: [10] inactive; negative
